From patent US20140350273A1, “PEDIATRIC USES OF CABAZITAXEL” (AVENTIS PHARMA S.A., priority 2012, published 2014)
Like-named read-outs stand apart in the source and are kept apart here.

System: human rhabdomyosarcoma RH-30
Type: in vivo
Details: for Average body weight change in % per mouse at nadir / Drug death (Day of death) / Regressions Complete / Regressions Partial / Tumor free survivors at day 120 / day of nadir / Biological interpretation / ΔT/ΔC in % (day 27): 18
Method: This efficacy may be quantified, for example, as changes in tumor volume for each treated (T) and control (C) group, which are calculated for each animal and each day by subtracting the tumor volume on the day of first treatment (staging day) from the tumor volume on the specified observation day. This allows calculating the tumor growth inhibition: ΔT/ΔC=(median delta T/median delta C)×100. Individual tumor volume changes from baseline are thereafter analyzed by a non-parametric two-way ANOVA-TYPE (with factors: group and repeated days) followed by a post-hoc contrasts analysis, with Bonferroni-Holm adjustment for multiplicity, comparing all treated groups to the control group. […] A probability less than 5% (p<0.05) was considered as significant.
Based on the National Cancer Institute (NCl) standards, a ΔT/ΔC≦40% is the minimal level required to declare activity.
The tumor doubling time (in days; Td) was estimated from the plot of the log linear growth of the control group tumors in exponential growth (100 to 1000 mm^3 range) [T. H. Corbett et al., Cancer, 40: 2660-2680 (1977); F. M. Schabel et al., Cancer Drug Development, Part B, Methods in Cancer Research, 17: 3-51, New York, Academic Press Inc. (1979)].
This efficacy may also be quantified by the number of tumor regressions observed after therapy. Individual mice reporting a tumor volume ≦50% of the Day 0 measurement for two consecutive measurements over a seven day period were considered partial responders (PR). Individual mice lacking palpable tumors (<4×4 mm^2 for two consecutive measurements over a seven day period) were classified as complete responders (CR); a CR that persisted until study completion was considered a tumor-free survivor (TFS).
The animals subjected to the experiment are subcutaneously grafted unilaterally with approximately 30 mg of a tumor fragment on day 0. The animals are implanted with a human tumor xenografted in immunocompromized mice. Several days post tumor implantation, mice are randomized according to their body weight to the different groups of treatments and controls. The animals are observed every day. […] The groups are then weighed once or twice a week until the end of the trial.
The tumors are measured 1 to 5 times a week, depending on the tumor doubling time, until the tumor reaches approximately 1,000 mm^3, or until the animal dies (if this occurs before the tumor reaches 1,000 mm^3). The animals are necropsied immediately after euthanasia or death.
The selected tumor model was a human rhabdomyosarcoma RH-30, xenografted in SCID mice [Douglass E C, et al. Cytogenet Cell Genet. 1987; 45(3-4):14855.].
Treatment solutions were prepared first by mixing 1 volume of ethanolic stock solution and 1 volume of polysorbate 80, then by adding 18 volumes of glucose 5% in water.

[1] = 3.5 mg/kg per injection (total 7.0) IV days 14
[2] = 3.5 mg/kg per injection (total 7.0) IV days 14, listed as DOCETAXEL
[3] = 3.5 mg/kg per injection (total 7.0) IV days 14, listed as docetaxel
[4] = 5.6 mg/kg per injection (total 11.2) IV days 14
[5] = 5.6 mg/kg per injection (total 11.2) IV days 14, listed as DOCETAXEL
[6] = 9.0 mg/kg per injection (total 18) IV days 14
[7] = 9.0 mg/kg per injection (total 18) IV days 14, listed as DOCETAXEL
[8] = 14.5 mg/kg per injection (total 29) IV days 14
[9] = 14.5 mg/kg per injection (total 29) IV days 14, listed as DOCETAXEL
[10] = 14.5 mg/kg per injection (total 29) IV days 14, listed as docetaxel

Compound: CC(=O)O[C@@]12CO[C@@H]1C[C@H](O)[C@@]1(C)C(=O)[C@H](O)C3=C(C)[C@@H](OC(=O)[C@H](O)[C@@H](NC(=O)OC(C)(C)C)c4ccccc4)C[C@@](O)([C@@H](OC(=O)c4ccccc4)[C@H]21)C3(C)C [Docetaxel, docetaxel]
- Average body weight change in % per mouse at nadir [1]: −1.8%
- Drug death (Day of death) [1]: 0/6
- Regressions Complete [1]: 0/6
- Regressions Partial [1]: 0/6
- Tumor free survivors at day 120 [1]: 0/6
- day of nadir [1]: (15) day
- Biological interpretation [2]: Inactive
- ΔT/ΔC in % (day 27) [2]: 77%
- Biological interpretation [3]: inactive
- ΔT/ΔC in % (day 27) [3]: > 40%
- Tumor volume changes from baseline: Median (nMad) (3.5 mg/kg, day 19): 477
- Tumor volume changes from baseline: Median (nMad) (3.5 mg/kg, day 20): 475
- Tumor volume changes from baseline: Median (nMad) (3.5 mg/kg, day 22): 495.5
- Tumor volume changes from baseline: Median (nMad) (3.5 mg/kg, day 25): 621.5
- Tumor volume changes from baseline: Median (nMad) (3.5 mg/kg, day 27): 736
- Tumor volume changes from baseline: Median (nMad) (3.5 mg/kg, day 29): 905.5
- Average body weight change in % per mouse at nadir [4]: −12.1%
- Drug death (Day of death) [4]: 0/6
- Regressions Complete [4]: 0/6
- Regressions Partial [4]: 4/6
- Tumor free survivors at day 120 [4]: 0/6
- day of nadir [4]: (25) day
- Biological interpretation [5]: Highly
- ΔT/ΔC in % (day 27) [5]: <0%
- Biological interpretation (5.6 mg/kg per injection (total 11.2) IV days 14, listed as docetaxel): highly active
- Tumor volume changes from baseline: Median (nMad) (5.6 mg/kg, day 18): 218 (84.5)
- Tumor volume changes from baseline: Median (nMad) (5.6 mg/kg, day 19): 289 (57.1)
- Tumor volume changes from baseline: Median (nMad) (5.6 mg/kg, day 20): 409.5
- Tumor volume changes from baseline: Median (nMad) (5.6 mg/kg, day 22): 405.5
- Tumor volume changes from baseline: Median (nMad) (5.6 mg/kg, day 25): −30.5
- Tumor volume changes from baseline: Median (nMad) (5.6 mg/kg, day 29): −47 (89.7)
- Tumor volume changes from baseline: Median (nMad) (5.6 mg/kg, day 33): 67 (262.4)
- Tumor volume changes from baseline: Median (nMad) (5.6 mg/kg, day 39): 454.5
- Tumor volume changes from baseline: Median (nMad) (5.6 mg/kg, day 41): 712
- Tumor volume changes from baseline: Median (nMad) (5.6 mg/kg, day 43): 1039.5
- Tumor volume changes from baseline: Median (nMad) (5.6 mg/kg, day 35): 129
- Average body weight change in % per mouse at nadir [6]: −11.2%
- Drug death (Day of death) [6]: 0/6
- Regressions Complete [6]: 0/6
- Regressions Partial [6]: 2/6
- Tumor free survivors at day 120 [6]: 0/6
- day of nadir [6]: (25) day
- Biological interpretation [7]: Highly
- ΔT/ΔC in % (day 27) [7]: <0%
- Biological interpretation (9.0 mg/kg per injection (total 18) IV days 14, listed as docetaxel): highly active
- Tumor volume changes from baseline: Median (nMad) (9 mg/kg, day 18): 202 (98.6)
- Tumor volume changes from baseline: Median (nMad) (9 mg/kg, day 19): 202 (71.9)
- Tumor volume changes from baseline: Median (nMad) (9 mg/kg, day 20): 325
- Tumor volume changes from baseline: Median (nMad) (9 mg/kg, day 22): 290.5
- Tumor volume changes from baseline: Median (nMad) (9 mg/kg, day 25): 115.5
- Tumor volume changes from baseline: Median (nMad) (9 mg/kg, day 29): 119.5
- Tumor volume changes from baseline: Median (nMad) (9 mg/kg, day 33): 272
- Tumor volume changes from baseline: Median (nMad) (9 mg/kg, day 39): 676
- Tumor volume changes from baseline: Median (nMad) (9 mg/kg, day 41): 904.5
- Tumor volume changes from baseline: Median (nMad) (9 mg/kg, day 43): 909
- Average body weight change in % per mouse at nadir [8]: −17.6%
- Drug death (Day of death) [8]: 0/6
- Regressions Complete [8]: 3/6
- Regressions Partial [8]: 5/6
- day of nadir [8]: (27) day
- ΔT/ΔC in % (day 27) [8]: 1%
- Biological interpretation [9]: Very
- Tumor free survivors at day 120 [9]: 0/6
- Biological interpretation [10]: very active
- Tumor free survivors at day 120 [10]: without TFS
- Tumor volume changes from baseline: Median (nMad) (14.5 mg/kg, day 18): 166.5
- Tumor volume changes from baseline: Median (nMad) (14.5 mg/kg, day 19): 195 (83)
- Tumor volume changes from baseline: Median (nMad) (14.5 mg/kg, day 25): 154.5
- Tumor volume changes from baseline: Median (nMad) (14.5 mg/kg, day 27): 13 (67.5)
- Tumor volume changes from baseline: Median (nMad) (14.5 mg/kg, day 29): 87 (100.8)
- Tumor volume changes from baseline: Median (nMad) (14.5 mg/kg, day 33): 17 (111.2)
- Tumor volume changes from baseline: Median (nMad) (14.5 mg/kg, day 46): 18.5
- Tumor volume changes from baseline: Median (nMad) (14.5 mg/kg, day 50): 485
- Tumor volume changes from baseline: Median (nMad) (14.5 mg/kg, day 35): −80 (63.8)
- Tumor volume changes from baseline: Median (nMad) (14.5 mg/kg, day 39): −112
- Tumor volume changes from baseline: Median (nMad) (14.5 mg/kg, day 41): −96 (78.6)
- Tumor volume changes from baseline: Median (nMad) (14.5 mg/kg, day 43): −72.5
